In US12643893B2, “Heteroaryl-pyridinium compound and redox flow battery comprising the same” (Korea Advanced Institute of Science and Technology, priority 2021, dated 2026):
Where two headings read alike, the source gives them in different places.

Legend:
[1] = Radical stability, UV-Vis time-dependent concentration decay; assay type: physicochemical; conditions: for time-dependent concentration decay of the radical: in 0.5 M TBATFSI/MeCN
Source text: FIG. 10—Radical stability of TMAP-BTP^·+ and BTP^·. (a-b) UV-Vis spectra of (a) TMAP-BTP^·+ and (b) BTP^· in 0.5 M TBATFSI/MeCN. (c-d) Calculated time-dependent concentration decay of (c) TMAP-BTP^·+ (0.22%/day) and (d) BTP (0.63%/day). Better stability of TMAP-BTP^·+ than BTP^· is presumably attributed to the cationic TMAP groups, which repel the redox molecules and prevent chemical reactions.

[2] = Electron-transfer rate from CV curves (Nicholson method); assay type: physicochemical; conditions: 0.1 M TBATFSI/MeCN
Experimental: The electron-transfer rate (k^0) was calculated from CV curves and using the Nicholson method(equation S2).
where k^o is the electron-transfer constant (cm/s), D is the diffusion coefficient estimated from the above RDE studies, R is the gas constant (8.314 J K^−1 mol^−1), T is the temperature (298 K), v is the scan rate of the CVs (mV s^−1).
The Ψ value was obtained by Kingler and Kochi relation (equation S3).
where ΔEp is the peak-to-peak potential for the corresponding reduction or oxidation event.

[3] = Cyclic voltammetry (CV) in three-electrode cells; assay type: physicochemical; conditions: for Formal potential (E^o′): CV, 4 mM in 0.1 M TBATFSI/MeCN
Experimental: All electrochemical examinations were carried out using a Biologic VMP3 electrochemical workstation in an Ar-filled glove box (MOTek, negligible O2 and H2O, tested by the ketyl solution).
Cyclic voltammetry (CV) was conducted in three-electrode cells comprised of glassy carbon (GC; diameter (d)=3 mm) as the working electrode (WE), a platinum wire as the counter electrode (CE), and a leak-free Ag/AgCl as the reference electrode (RE). The GC electrodes were polished using alumina slurry before testing (ALS Co., Ltd).
After CV analysis, ferrocene (Fc, ferrocene, 98%, Sigma-Aldrich) was added to the cell to measure its redox potential, and the measured sample potential was converted to the Fc/Fc^+.

[4] = Rotating disk electrode LSV, diffusion coefficient (Levich equation); assay type: physicochemical; conditions: 0.1 M TBATFSI/MeCN
Experimental: To measure diffusion coefficient (D), rotating disk electrode (RDE; ALS Co., Ltd) measurements were conducted with the same three-electrode cells. […] Limited mass-transport provides a current plateau (iL) of redox processes, which is linearly proportional to the square root of the rotating rates (ω^1/2). The diffusion coefficient (D) was calculated by plotting IL as a function of ω^1/2 and through the Levich equation (equation S1). iL=0.620nFAD^2/3ω^1/2η^−1/6Co (equation S1)
where IL is the limiting current (A cm^−2), n is the number of electrons transferred during the redox reaction, F is the Faraday's constant (96485 C mol^−1), A is the area of the electrode (0.0707 cm^2), D is the diffusion coefficient (cm^2 […]), ω is the angular rotation rate (rad s^−1), η is the kinematic viscosity (0.00442 cm^2 s^−1, referred to 0.1 M TBAPF6/MeCN), and Co is the concentration of the sample chemical.

[5] = expected from the permeability

Row | time the reduced form remained stable in the electrolyte solution ([1]; electrolyte solution) | time-dependent concentration decay of the radical [1] | electron-transfer constant (k^o) [2] | Formal potential (E^o′) ([3]; first redox event (single event for BTMAP-Fc)) | peak-to-peak potential difference (ΔEp) ([3]; maintained for 100 CV cycles) | anodic-to-cathodic peak current ratio (Ipa/Ipc) ([3]; preserved during 100 CV cycles) | Formal potential (E^o′) ([3]; second redox event) | diffusion coefficient (D) [4] | time required for 10% decay associated with the crossover [5] | time required for 10% decay associated with the crossover ([5]; listed as TMAP-BTP^·+) | cyclability in the CV profile ([3]; 100 CV cycles, FIGS. 6 and 7) | time required for 10% decay associated with the crossover ([5]; listed as BTP^·) | SMILES
1 | 4 days | 0.22 %/day | ~0.1 cm/s | −1.19 V vs. Fc/Fc^+ | 105 mV | close to unity | −1.87 V vs. Fc/Fc^+ | 1.91×10^−6 cm^2 s^−1 | 0.37 year | 0.094 year | – | – | C[N+](C)(C)CCC[n+]1ccc(-c2nc3ccccc3s2)cc1 [TMAP-BTP^2+]
2 | – | 0.63 %/day | – | – | – | – | – | – | 0.047 year | – | excellent cyclability | 0.0065 year | C[n+]1ccc(-c2nc3ccccc3s2)cc1 [BTP^+]
